This is an account of results in patent publication US10966996B2, “Glechoma longitube extract, preparation method for same, and use thereof in sugar reduction, weight loss, and lipid reduction” (SHANGHAI INSTITUTE OF MATERIA MEDICA CHINESE ACADEMY OF …, priority 2014, dated 2021).

The target of one experiment is T1, hDGAT1 (Homo sapiens, UniProt O75907).
T1 construct: made in house; host or cells: insect cells
T1 sequence (O75907 1-488): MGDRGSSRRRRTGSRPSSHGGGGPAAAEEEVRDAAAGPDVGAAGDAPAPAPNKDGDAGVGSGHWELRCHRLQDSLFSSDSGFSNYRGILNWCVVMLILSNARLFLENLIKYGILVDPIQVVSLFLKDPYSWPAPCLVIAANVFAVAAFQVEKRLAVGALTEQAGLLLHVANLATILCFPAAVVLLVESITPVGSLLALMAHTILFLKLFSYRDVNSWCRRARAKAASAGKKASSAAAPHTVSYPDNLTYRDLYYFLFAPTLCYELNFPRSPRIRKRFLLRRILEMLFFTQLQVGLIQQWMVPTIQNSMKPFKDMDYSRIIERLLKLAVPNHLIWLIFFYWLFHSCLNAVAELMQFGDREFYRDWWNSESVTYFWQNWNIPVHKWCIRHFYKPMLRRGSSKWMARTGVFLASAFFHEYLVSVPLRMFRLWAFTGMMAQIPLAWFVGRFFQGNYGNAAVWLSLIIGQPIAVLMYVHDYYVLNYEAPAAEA
Kind of experiment: inhibitory activity against hDGAT1 (CPM fluorescence). Type of experiment: biochemical. Conditions: for inhibition at 10 µM: read-out: Inhibition rate (%) (10 μM) against hDGAT1; for inhibition at 50 µM: read-out: Inhibition rate (%) (50 μM) against hDGAT1. Here is the method: Experimental method: (1) the effect of the extract of Glechoma longituba (Nakai) Kupr., LQC-H-1, on serum triglyceride level was evaluated in acute hypertriglyceridemic mouse model; 6-week old male C57BL/KsJ mice (Shanghai Slac Laboratory Animal Company), 8 for each group, weight of 20±2 g, were fed according to SPF grade operation procedure and fasted overnight for 16 hours prior to experiment. Compounds of different concentrations were intragastric administrated to each administration group of mice, respectively. Equal volume of water was given to control group and blank group of mice. 30 mins later, 2 g/kg olive oil was intragastric administrated to administration group and control group of mice, while equal volume of water was given to blank group of mice. 2 hours later, blood was collected from orbital vein of each group of mice for the separation of serum, and concentration of triglyceride in the serum was measured; (2) inhibitory activity of the individual compounds separated from the extract of Glechoma longituba (Nakai) Kupr., LQC-H-1, against diacylglycerol acyltransferase (DGAT): human derived DGAT1 obtained by expression and purification with insect cells were pre-incubated together with the compounds, substrate diacylglycerol was added to initiate the reaction in the presence of coenzyme A, fluorescence signal generated by the combination of produced sulfydryl and CPM was measured, and the inhibitory activity of the compound against DGAT was calculated according to the following formula: Inhibition rate %=(OD blank−OD compound)/(OD blank−OD negative control)*100%
OD compound, OD blank, and OD negative control represented the fluorescence values from a compound well, a blank well, and a negative control well free of DGAT1 enzyme, and the concentrations of the compounds when the enzyme activity inhibition rate (%) reached 50% were set as IC50 value; (3) inhibitory activity of the individual compounds separated from the extract of Glechoma longituba (Nakai) Kupr., LQC-H-1, against pancrelipase: substrate p-Nitrophenyl acetate (Sigma, USA) was formulated to 1.35 mM with phosphate buffer (25 mM, pH 6.8); porcine pancrelipase (Sigma) was formulated to 10 mg/ml with phosphate buffer; brominated eneyne compounds were formulated to solutions of different concentrations with phosphate buffer. Then, 50 μl of 1.35 mM p-Nitrophenyl acetate (Sigma, USA) solution and 10 μl of test compounds of different concentrations were sequentially added into a 96-well plate and pre-incubated at 37° C. for 5 mins. Finally, 50 μl of 10 mg/ml pancrelipase (EC 3.1.1.3, Sigma, USA) was added and mixed. The reaction proceeded at 37° C. for further 20 mins Absorbance of each well was measured at 492 nm. The inhibition rates (%) of the test samples against pancrelipase were calculated based on the absorbance at 492 nm. The concentrations of the compounds when then enzyme activity inhibition rate (%) reached 50% was set as IC50 value. The inhibition rate (%) could be calculated according to the following formula: Inhibition rate (%)=[(A−B)−(C−D)]/(A−B)×100

The target of a further experiment is T2, glucose oxidase (GOX) (Homo sapiens, UniProt Q9UJM8).
T2 sequence (Q9UJM8 1-370): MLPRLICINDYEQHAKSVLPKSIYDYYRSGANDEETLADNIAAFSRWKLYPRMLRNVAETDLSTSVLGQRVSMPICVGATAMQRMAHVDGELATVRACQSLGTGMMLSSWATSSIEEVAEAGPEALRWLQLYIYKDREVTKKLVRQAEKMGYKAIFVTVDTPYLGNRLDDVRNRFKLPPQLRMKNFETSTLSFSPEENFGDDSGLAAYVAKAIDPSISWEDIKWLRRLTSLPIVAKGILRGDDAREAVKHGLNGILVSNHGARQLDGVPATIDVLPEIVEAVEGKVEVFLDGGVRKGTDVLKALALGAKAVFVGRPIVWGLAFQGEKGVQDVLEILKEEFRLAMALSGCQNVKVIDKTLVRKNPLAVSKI
Put plainly: inhibitory activity against glucose oxidase (GOX), enzyme coupling method with glycolic acid substrate. Set-up: Vmax: unit not given here. Type of experiment: biochemical. Conditions: for inhibition at 0.1 µM / inhibition at 0.3 µM / inhibition at 1 µM / inhibition at 3 µM / inhibition at 10 µM / inhibition at 30 µM / inhibition at 100 µM: read-out: Inhibition rate; for IC50: fitted by Graphpad Prism 5.0, tested 100 μM-0.1 μM. Here is the method:
Mechanism of experiment: enzyme coupling method utilizes peroxidase (POD) and substrates thereof to react with generated H2O2 to produce colored products so as to determine the catalytic reaction rate of glucose oxidase. POD catalyzes H2O2 to react with phenol and 4-amino antipyrine to produce brown-red quinone substances.
Experimental method: reagents were added according to the table below; the reaction was immediately initiated upon the final addition of substrate glycolic acid; the kinetic course of the reaction was detected by microplate reader; the enzyme activity was represented by Vmax, maximum reaction velocity.
The measurement results were fitted by Graphpad Prism 5.0 to calculate IC50 values.

For the molecule `O=C(O)C1O[C@@H](OC2C(O)[C@H](O)C(C(=O)O)O[C@H]2Oc2cc(O)c3c(=O)cc(-c4ccc(O)c(O)c4)oc3c2)C(O)C(O)[C@@H]1O` (stereo partly drawn) [Compound I, luteolin-7-O-[β-glucuronosyl(1→2)β-glucuronic acid]], on hDGAT1, the inhibition (usually the change of the read-out against control, counted positive when it falls) at 10 µM is around 20% and the inhibition at 50 µM is above 50%. Besides, at glucose oxidase (GOX) (0.1 μM), the Vmax worked out at 35.13 ± 0.22 and the inhibition at 0.1 µM is 1.54 ± 0.62%. Moreover, on glucose oxidase (GOX) (0.3 μM), the Vmax was 35.47 ± 0.98 and the inhibition at 0.3 µM was found to be 0.6 ± 2.74%. Besides, at glucose oxidase (GOX) (1 μM), the Vmax was 35.36 ± 0.65 and the inhibition at 1 µM was 0.9 ± 1.82%. Further, at glucose oxidase (GOX) (3 μM), the Vmax is 35.39 ± 0.63 and the inhibition at 3 µM came out at 0.83 ± 1.77%. In addition, on glucose oxidase (GOX) (10 μM), the Vmax was 35.08 ± 0.21 and the inhibition at 10 µM worked out at 1.69 ± 0.58%. On glucose oxidase (GOX) (30 μM), the Vmax was 34.04 ± 0.65 and the inhibition at 30 µM turned out to be 4.6 ± 1.82%. Also, at glucose oxidase (GOX) (100 μM), the Vmax is 29.34 ± 0.10 and the inhibition at 100 µM came out at 17.8 ± 0.29%. Also, the IC50 (in general, the concentration that gives 50% inhibition) on glucose oxidase (GOX) was found to be 500 µM.

Take `O=C(O)C1O[C@@H](OC2C(O)[C@H](O)C(C(=O)O)O[C@H]2Oc2cc(O)c3c(=O)cc(-c4ccc(O)cc4)oc3c2)C(O)C(O)[C@@H]1O` (stereo partly drawn) [Compound II, apigenin-7-O-[β-glucuronosyl(1→2)β-glucuronic acid]]: at hDGAT1, the inhibition at 10 µM was around 20% and the inhibition at 50 µM is above 50%. At glucose oxidase (GOX) (0.1 μM), the Vmax was found to be 36.05 ± 0.85 and the inhibition at 0.1 µM is -1.04 ± 2.39%. On glucose oxidase (GOX) (0.3 μM), the Vmax amounted to 36.35 ± 0.84 and the inhibition at 0.3 µM is -1.88 ± 2.35%. At glucose oxidase (GOX) (1 μM), the Vmax is 35.42 ± 0.43 and the inhibition at 1 µM turned out to be 0.74 ± 1.19%. Moreover, at glucose oxidase (GOX) (3 μM), the Vmax is 35.85 ± 1.03 and the inhibition at 3 µM was -0.48 ± 2.9%. On glucose oxidase (GOX) (10 μM), the Vmax turned out to be 35.63 ± 1.00 and the inhibition at 10 µM came to 0.15 ± 2.81%. On glucose oxidase (GOX) (30 μM), the Vmax came out at 33.88 ± 0.98 and the inhibition at 30 µM is 5.05 ± 2.76%. Also, on glucose oxidase (GOX) (100 μM), the Vmax turned out to be 29.13 ± 0.80 and the inhibition at 100 µM is 18.4 ± 2.23%. Besides, half-maximal inhibition against glucose oxidase (GOX) (IC50) was put at 400 µM.
